The numbers were not newly measured in patent publication US6689905B2, “Stereoisomers of 3-aminotricyclo[2.2.1.0(2.6)]heptane-1,3-dicarboxylic acid” (Wyeth, priority 2001, dated 2004), which cites them from elsewhere.

The target of this data set is type 2 mGlu receptors (Homo sapiens, UniProt Q14416). The settings on record: literature description.
Sequence of type 2 mGlu receptors (Q14416 19-872): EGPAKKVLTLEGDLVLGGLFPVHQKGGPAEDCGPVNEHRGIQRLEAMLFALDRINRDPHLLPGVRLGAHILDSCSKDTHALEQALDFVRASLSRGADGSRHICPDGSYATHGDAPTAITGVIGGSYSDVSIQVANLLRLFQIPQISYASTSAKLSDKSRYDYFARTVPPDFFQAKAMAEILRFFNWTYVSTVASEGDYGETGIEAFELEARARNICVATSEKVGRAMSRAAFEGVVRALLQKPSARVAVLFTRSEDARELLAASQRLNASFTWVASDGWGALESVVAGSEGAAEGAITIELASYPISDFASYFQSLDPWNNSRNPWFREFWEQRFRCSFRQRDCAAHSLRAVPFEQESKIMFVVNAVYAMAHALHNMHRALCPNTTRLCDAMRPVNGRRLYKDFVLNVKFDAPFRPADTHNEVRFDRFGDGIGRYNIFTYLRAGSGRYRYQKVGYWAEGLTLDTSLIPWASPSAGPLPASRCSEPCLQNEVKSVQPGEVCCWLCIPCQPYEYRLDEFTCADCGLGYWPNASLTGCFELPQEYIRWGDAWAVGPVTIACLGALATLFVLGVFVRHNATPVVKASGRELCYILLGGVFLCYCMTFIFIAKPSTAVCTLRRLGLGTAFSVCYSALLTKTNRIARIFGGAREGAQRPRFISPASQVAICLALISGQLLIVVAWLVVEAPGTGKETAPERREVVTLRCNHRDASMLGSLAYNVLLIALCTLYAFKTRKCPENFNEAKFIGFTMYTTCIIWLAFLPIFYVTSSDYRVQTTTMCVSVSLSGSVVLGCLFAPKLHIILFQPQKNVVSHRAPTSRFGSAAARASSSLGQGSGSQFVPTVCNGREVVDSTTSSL

For the molecule `NC1(C(=O)O)CC2CCC1C2C(=O)O` (stereo not drawn) [ABHD-I, 2-endo-aminobicyclo[2.2.1]heptane-2-exo-7-anti-dicarboxylic acid], the “functional character at type 2 mGlu receptors” value is listed as “agonists”.
